According to the supplement of paper PMC10307832:

What was measured:
Assay in all cases: relative viability (nuclei count vs DMSO), 5 days (fraction); higher = more cells survive
[1] = system: A-427
Outline: (§1)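 Lung cancer cell lines were seeded in 1536-well plates and dosed by pin tool the next day, with either a single drug or a fixed anchor-drug dose combined with five library-drug doses (not always all listed) spaced in √10 steps. Five days later, one step fixed the cells and stained their nuclei (final 0.05% Triton X-100, 1% formaldehyde, 1 ug/ml Hoechst), and nuclei were counted on 4× images. Relative viability is the nuclei count in treated wells divided by the count in vehicle wells, and each value is the median of duplicate plates.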

[2] = system: HCC-15
Outline: as §1

[3] = system: HCC-78
Outline: as §1

[4] = system: HOP-62
Outline: as §1

[5] = system: LC-2-ad
Outline: as §1

[6] = system: LXF-289
Outline: as §1

[7] = system: NCI-H1734
Outline: as §1

[8] = system: NCI-H1755
Outline: as §1

[9] = system: NCI-H1915
Outline: as §1

[10] = system: NCI-H1975
Outline: as §1

[11] = system: NCI-H2126
Outline: as §1

[12] = system: NCI-H2228
Outline: as §1

[13] = system: NCI-H2342
Outline: as §1

[14] = system: NCI-H2347
Outline: as §1

[15] = system: NCI-H358
Outline: as §1

[16] = system: NCI-H522
Outline: as §1

[17] = system: NCI-H647
Outline: as §1

[18] = system: PC-3 [JPC-3]
Outline: as §1

[19] = system: RERF-LC-KJ
Outline: as §1

[20] = system: SK-LU-1
Outline: as §1

[21] = system: SW 1573
Outline: as §1

CC(=O)O[C@@]12CO[C@@H]1C[C@H](O)[C@@]1(C)C(=O)[C@H](O)C3=C(C)[C@@H](OC(=O)[C@H](O)[C@@H](NC(=O)OC(C)(C)C)c4ccccc4)C[C@@](O)([C@@H](OC(=O)c4ccccc4)[C@H]21)C3(C)C [Docetaxel] + O=C(CCCCCCC(=O)Nc1ccccc1)NO [Vorinostat] (partner 1 µM)
relative viability ([1]; first compound 0.0002 µM): 0.824
relative viability ([1]; first compound 0.000632 µM): 0.822
relative viability ([1]; first compound 0.002 µM): 0.621
relative viability ([1]; first compound 0.006325 µM): 0.36
relative viability ([1]; first compound 0.02 µM): 0.27
relative viability ([2]; first compound 0.0002 µM): 0.856
relative viability ([2]; first compound 0.000632 µM): 0.574
relative viability ([2]; first compound 0.006325 µM): 0.227
relative viability ([2]; first compound 0.02 µM): 0.131
relative viability ([3]; first compound 0.0002 µM): 0.473
relative viability ([3]; first compound 0.000632 µM): 0.374
relative viability ([3]; first compound 0.002 µM): 0.261
relative viability ([3]; first compound 0.006325 µM): 0.31
relative viability ([3]; first compound 0.02 µM): 0.313
relative viability ([4]; first compound 0.0002 µM): 0.522
relative viability ([4]; first compound 0.000632 µM): 0.346
relative viability ([5]; first compound 0.0002 µM): 0.472
relative viability ([5]; first compound 0.000632 µM): 0.275
relative viability ([5]; first compound 0.002 µM): 0.209
relative viability ([5]; first compound 0.006325 µM): 0.227
relative viability ([5]; first compound 0.02 µM): 0.152
relative viability ([6]; first compound 0.0002 µM): 0.797
relative viability ([6]; first compound 0.000632 µM): 0.392
relative viability ([6]; first compound 0.002 µM): 0.168
relative viability ([6]; first compound 0.006325 µM): 0.19
relative viability ([6]; first compound 0.02 µM): 0.118
relative viability ([7]; first compound 0.0002 µM): 0.618
relative viability ([7]; first compound 0.000632 µM): 0.506
relative viability ([7]; first compound 0.002 µM): 0.304
relative viability ([7]; first compound 0.006325 µM): 0.328
relative viability ([7]; first compound 0.02 µM): 0.207
relative viability ([8]; first compound 0.0002 µM): 0.791
relative viability ([8]; first compound 0.000632 µM): 0.728
relative viability ([8]; first compound 0.002 µM): 0.433
relative viability ([8]; first compound 0.006325 µM): 0.479
relative viability ([8]; first compound 0.02 µM): 0.373
relative viability ([9]; first compound 0.0002 µM): 0.531
relative viability ([9]; first compound 0.000632 µM): 0.258
relative viability ([9]; first compound 0.002 µM): 0.316
relative viability ([9]; first compound 0.006325 µM): 0.174
relative viability ([9]; first compound 0.02 µM): 0.0863
relative viability ([10]; first compound 0.0002 µM): 0.723
relative viability ([10]; first compound 0.000632 µM): 0.378
relative viability ([10]; first compound 0.002 µM): 0.283
relative viability ([10]; first compound 0.006325 µM): 0.232
relative viability ([10]; first compound 0.02 µM): 0.161
relative viability ([11]; first compound 0.0002 µM): 0.783
relative viability ([11]; first compound 0.000632 µM): 0.577
relative viability ([11]; first compound 0.002 µM): 0.312
relative viability ([11]; first compound 0.006325 µM): 0.337
relative viability ([12]; first compound 0.0002 µM): 0.565
relative viability ([12]; first compound 0.000632 µM): 0.145
relative viability ([12]; first compound 0.002 µM): 0.168
relative viability ([12]; first compound 0.006325 µM): 0.151
relative viability ([12]; first compound 0.02 µM): 0.145
relative viability ([13]; first compound 0.0002 µM): 0.625
relative viability ([13]; first compound 0.000632 µM): 0.662
relative viability ([13]; first compound 0.002 µM): 0.569
relative viability ([13]; first compound 0.006325 µM): 0.445
relative viability ([13]; first compound 0.02 µM): 0.475
relative viability ([14]; first compound 0.0002 µM): 0.726
relative viability ([14]; first compound 0.000632 µM): 0.554
relative viability ([14]; first compound 0.002 µM): 0.418
relative viability ([14]; first compound 0.006325 µM): 0.434
relative viability ([14]; first compound 0.02 µM): 0.33
relative viability ([15]; first compound 0.0002 µM): 0.625
relative viability ([15]; first compound 0.000632 µM): 0.399
relative viability ([15]; first compound 0.002 µM): 0.109
relative viability ([15]; first compound 0.006325 µM): 0.112
relative viability ([15]; first compound 0.02 µM): 0.0606
relative viability ([16]; first compound 0.0002 µM): 0.852
relative viability ([16]; first compound 0.000632 µM): 0.899
relative viability ([16]; first compound 0.002 µM): 0.713
relative viability ([16]; first compound 0.006325 µM): 0.516
relative viability ([16]; first compound 0.02 µM): 0.344
relative viability ([17]; first compound 0.0002 µM): 0.486
relative viability ([17]; first compound 0.000632 µM): 0.32
relative viability ([17]; first compound 0.002 µM): 0.196
relative viability ([17]; first compound 0.006325 µM): 0.14
relative viability ([17]; first compound 0.02 µM): 0.082
relative viability ([18]; first compound 0.0002 µM): 0.673
relative viability ([18]; first compound 0.000632 µM): 0.58
relative viability ([18]; first compound 0.002 µM): 0.395
relative viability ([18]; first compound 0.006325 µM): 0.343
relative viability ([18]; first compound 0.02 µM): 0.21
relative viability ([19]; first compound 0.0002 µM): 0.591
relative viability ([19]; first compound 0.000632 µM): 0.628
relative viability ([19]; first compound 0.002 µM): 0.368
relative viability ([19]; first compound 0.006325 µM): 0.189
relative viability ([19]; first compound 0.02 µM): 0.151
relative viability ([20]; first compound 0.0002 µM): 0.754
relative viability ([20]; first compound 0.000632 µM): 0.537
relative viability ([20]; first compound 0.002 µM): 0.38
relative viability ([20]; first compound 0.006325 µM): 0.349
relative viability ([20]; first compound 0.02 µM): 0.226
relative viability ([21]; first compound 0.0002 µM): 0.547
relative viability ([21]; first compound 0.000632 µM): 0.305
relative viability ([21]; first compound 0.002 µM): 0.228
relative viability ([21]; first compound 0.006325 µM): 0.174
relative viability ([21]; first compound 0.02 µM): 0.126
